What all share (assay type): cell-based
For assay [1], the target named is T1, xCT (system xc–, cystine-glutamate exchanger) (Rattus norvegicus, UniProt A0A8I6AB70).
T1 construct: gene Slc7a11; with 4F2hc (Slc3a2)
Kind of assay: inhibition of [3H]-L-glutamate uptake in Na+-free buffer, CHO-xCT cells, concentration-response.

For assay [2], the target named is T2, xCT (system xc–, cystine-glutamate exchanger) (Mus musculus, UniProt Q9WTR6).
T2 construct: gene Slc7a11; native exchanger in cultured astrocytes and spinal cord crude synaptosomes, wild-type versus xCT–/–; with 4F2hc (Slc3a2)
T2 sequence (Q9WTR6 1-502): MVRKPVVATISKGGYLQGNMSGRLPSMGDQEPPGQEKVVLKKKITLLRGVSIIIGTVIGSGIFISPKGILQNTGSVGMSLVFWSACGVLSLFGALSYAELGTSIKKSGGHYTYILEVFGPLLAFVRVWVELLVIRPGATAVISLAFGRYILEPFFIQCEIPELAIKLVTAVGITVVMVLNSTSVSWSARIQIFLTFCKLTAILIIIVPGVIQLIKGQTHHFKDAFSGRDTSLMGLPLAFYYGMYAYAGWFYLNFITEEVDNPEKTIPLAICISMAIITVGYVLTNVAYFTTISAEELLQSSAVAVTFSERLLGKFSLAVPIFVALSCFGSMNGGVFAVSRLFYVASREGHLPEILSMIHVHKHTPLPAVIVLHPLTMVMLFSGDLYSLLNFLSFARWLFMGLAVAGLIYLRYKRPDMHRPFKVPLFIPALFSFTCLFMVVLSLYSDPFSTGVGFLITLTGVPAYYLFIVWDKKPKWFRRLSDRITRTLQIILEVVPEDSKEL
T2 sequence (P10852 1-526 partner): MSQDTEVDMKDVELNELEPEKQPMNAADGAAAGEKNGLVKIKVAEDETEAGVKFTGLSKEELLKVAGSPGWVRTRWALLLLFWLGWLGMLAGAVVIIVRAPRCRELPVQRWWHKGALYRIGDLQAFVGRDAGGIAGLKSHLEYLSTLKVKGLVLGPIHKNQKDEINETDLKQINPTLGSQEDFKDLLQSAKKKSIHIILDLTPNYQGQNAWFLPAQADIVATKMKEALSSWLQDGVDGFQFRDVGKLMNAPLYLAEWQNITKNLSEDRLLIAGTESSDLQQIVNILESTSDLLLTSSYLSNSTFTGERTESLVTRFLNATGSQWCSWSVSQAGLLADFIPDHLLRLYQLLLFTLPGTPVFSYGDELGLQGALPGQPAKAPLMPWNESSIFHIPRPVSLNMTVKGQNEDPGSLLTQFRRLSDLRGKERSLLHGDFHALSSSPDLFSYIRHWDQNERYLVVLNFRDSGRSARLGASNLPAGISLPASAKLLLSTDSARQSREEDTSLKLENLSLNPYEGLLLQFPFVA
Nature of the assay: radiolabeled substrate uptake in Na+-free buffer, knockout control.

For assay [3], the target named is T1, xCT (system xc–, cystine-glutamate exchanger). Nature of the assay: radiolabeled substrate uptake in Na+-free buffer, transfected versus non-transfected CHO cells.

T1 sequence (A0A8I6AB70 1-502): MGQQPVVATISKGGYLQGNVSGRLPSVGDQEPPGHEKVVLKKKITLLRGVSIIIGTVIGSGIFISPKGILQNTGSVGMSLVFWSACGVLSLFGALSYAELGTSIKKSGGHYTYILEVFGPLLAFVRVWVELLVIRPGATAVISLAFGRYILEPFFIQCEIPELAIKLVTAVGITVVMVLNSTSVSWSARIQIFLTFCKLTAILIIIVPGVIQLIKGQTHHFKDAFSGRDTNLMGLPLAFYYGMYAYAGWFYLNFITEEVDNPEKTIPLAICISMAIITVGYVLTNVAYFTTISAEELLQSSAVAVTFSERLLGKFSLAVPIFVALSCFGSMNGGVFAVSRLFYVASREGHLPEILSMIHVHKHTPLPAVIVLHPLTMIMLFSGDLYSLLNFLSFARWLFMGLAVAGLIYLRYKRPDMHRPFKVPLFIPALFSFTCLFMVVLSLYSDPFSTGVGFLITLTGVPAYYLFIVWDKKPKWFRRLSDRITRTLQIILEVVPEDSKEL

As a reminder, the IC50 is the concentration that gives 50% inhibition. A high value points to a need for much substance. `N[C@@H](CCS(=O)(=O)O)C(=O)O` [HCA] had an IC50 in assay [1] of 5.75 µM. That is a single-digit micromolar value.

In the case of `N[C@@H](CCC(=O)O)C(=O)O` [L-glutamate], the “radiolabeled substrate uptake in Na+-free buffer, knockout control” value in assay [2] is “the uptake of [^3H]-L-glutamate was barely detectable in astrocytes derived from the transgenic mice lacking xCT”. For the same compound, the “radiolabeled substrate uptake in Na+-free buffer, transfected versus non-transfe” value in assay [3] is “[^3H]-L-glutamate uptake measured in the transfected cells was significantly higher as compared to non-transfected cells”.
